Assay results: patent US6737383B1, “Herbicidal oxadiazolidines” (priority 1999, dated 2004)

What was measured:
wheat = test: Test B pre/postemergence wheat; type: in vivo, Triticum aestivum
In short: (§1)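 Test chemicals in a non-phytotoxic solvent mixture with surfactant were sprayed preemergence onto planted seeds and postemergence onto plants 2 to 18 cm tall (1- to 4-leaf stage). After twelve to sixteen days in a greenhouse, injury was visually rated against untreated controls from 0 (no effect) to 10 (complete control).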

corn = test: Test B pre/postemergence corn; type: in vivo, Zea mays
In short: as §1

rape = test: Test B pre/postemergence rape; type: in vivo, Brassica napus
In short: as §1

surinam grass = test: Test B pre/postemergence surinam grass; type: in vivo, Brachiaria decumbens
In short: as §1

crabgrass = test: Test B pre/postemergence crabgrass; type: in vivo, Digitaria sanguinalis
In short: as §1

sugar beet = test: Test B pre/postemergence sugar beet; type: in vivo, Beta vulgaris
In short: as §1

smallflower flatsedge = test: Test B flood test smallflower flatsedge; type: in vivo, Cyperus difformis
In short: (§2)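 Each value is a visual injury score relative to controls, with 10 meaning complete control and 0 no effect. Evaluation took place twelve to sixteen days after the 2-leaf-stage plants were treated and kept in the greenhouse.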

pigweed = test: Test B pre/postemergence pigweed; type: in vivo, Amaranthus retroflexus
In short: as §1

bamyardgrass = test: Test B flood test barnyardgrass; type: in vivo, Echinochloa crus-galli
In short: as §2

cocklebur = test: Test B pre/postemergence cocklebur; type: in vivo, Xanthium strumarium
In short: as §1

purple nutsedge = test: Test B pre/postemergence purple nutsedge; type: in vivo, Cyperus rotundus
In short: as §1

duck salad = test: Test B flood test duck salad; type: in vivo, Heteranthera limosa
In short: as §2

morningglory = test: Test B pre/postemergence morningglory; type: in vivo, Ipomoea hederacea
In short: as §1

giant foxtail = test: Test B pre/postemergence giant foxtail; type: in vivo, Setaria faberii
In short: as §1

rice = test: Test B flood test rice; type: in vivo, Oryza sativa
In short: as §2

wild oat = test: Test B pre/postemergence wild oat; type: in vivo, Avena fatua
In short: as §1

[1] = Postemergence, Rate 62 g/ha, scale 0 to 10, 0 is no effect, 10 is complete control
[2] = Postemergence, Rate 250 g/ha, scale 0 to 10, 0 no effect, 10 complete control
[3] = Preemergence, Rate 31 g/ha, visual rating, scale 0 to 10 (0 no effect, 10 complete control)
[4] = Preemergence, Rate 62 g/ha, scale 0 to 10, 0 is no effect, 10 is complete control
[5] = Preemergence, Rate 125 g/ha, scale 0 to 10 (0 no effect, 10 complete control)
[6] = Preemergence, Rate 250 g/ha, scale of 0 to 10 where 0 is no effect and 10 is complete control
[7] = Rate 125 g/ha, Postemergence, scale 0 to 10, 0 no effect, 10 complete control
[8] = Rate 31 g/ha, Postemergence, scale 0 to 10
[9] = Rate 125 g/ha, Postemergence section (flood test species), scale 0 to 10, 0 no effect, 10 complete control
[10] = flood test, listed under Postemergence, Rate 250 g/ha, scale 0 to 10, 0 no effect, 10 complete control
[11] = Rate 500 g/ha, Postemergence section of Table B, 0 to 10 scale (0 no effect, 10 complete control)

COc1ccc(-n2c(=O)on(C(=O)N(c3ccc(F)cc3F)C(C)C)c2=O)c(OC)c1 [Compound 32]
Wheat plant response rating (wheat; [1]): 0
Wheat plant response rating (wheat; [2]): 0
Wheat plant response rating (wheat; [3]): 0
Plant response rating, Wheat (wheat; [4]): 0
Plant response rating, Wheat (wheat; [5]): 0
Plant response rating, Wheat (wheat; [6]): 0
Wheat plant response rating (wheat; [7]): 0
Corn plant response rating (corn; [1]): 0
Corn plant response rating (corn; [2]): 0
Corn plant response rating (corn; [3]): 0
Plant response rating, Corn (corn; [4]): 0
Plant response rating, Corn (corn; [5]): 0
Plant response rating, Corn (corn; [6]): 0
Corn plant response rating (corn; [8]): 0
Corn plant response rating (corn; [7]): 0
Rape plant response rating (rape; [1]): 0
Rape plant response rating (rape; [2]): 0
Rape plant response rating (rape; [3]): 0
Plant response rating, Rape (rape; [4]): 0
Plant response rating, Rape (rape; [5]): 0
Plant response rating, Rape (rape; [6]): 0
Rape plant response rating (rape; [8]): 0
Rape plant response rating (rape; [7]): 0
B. signalgrass plant response rating (surinam grass; [1]): 0
B. signalgrass plant response rating (surinam grass; [2]): 0
B. signalgrass plant response rating (surinam grass; [3]): 0
Plant response rating, B. signalgrass (surinam grass; [4]): 0
Plant response rating, B. signalgrass (surinam grass; [5]): 0
Plant response rating, B. signalgrass (surinam grass; [6]): 2
B. signalgrass plant response rating (surinam grass; [8]): 0
B. signalgrass plant response rating (surinam grass; [7]): 0
Crabgrass plant response rating (crabgrass; [1]): 0
Crabgrass plant response rating (crabgrass; [2]): 3
Crabgrass plant response rating (crabgrass; [3]): 0
Plant response rating, Crabgrass (crabgrass; [4]): 4
Plant response rating, Crabgrass (crabgrass; [5]): 6
Plant response rating, Crabgrass (crabgrass; [6]): 9
Crabgrass plant response rating (crabgrass; [8]): 0
Crabgrass plant response rating (crabgrass; [7]): 2
Sugarbeets plant response rating (sugar beet; [1]): 0
Sugarbeets plant response rating (sugar beet; [2]): 0
Sugarbeets plant response rating (sugar beet; [3]): 0
Plant response rating, Sugarbeets (sugar beet; [4]): 0
Plant response rating, Sugarbeets (sugar beet; [5]): 0
Plant response rating, Sugarbeets (sugar beet; [6]): 0
Sugarbeets plant response rating (sugar beet; [7]): 0
S. Flatsedge plant response rating (smallflower flatsedge; [1]): 0
S. Flatsedge plant response rating (smallflower flatsedge; [9]): 0
S. Flatsedge plant response rating (smallflower flatsedge; [10]): 2
Redroot pigweed plant response rating (pigweed; [1]): 0
Redroot pigweed plant response rating (pigweed; [2]): 0
Redroot pigweed plant response rating (pigweed; [3]): 0
Plant response rating, Redroot pigweed (pigweed; [4]): 0
Plant response rating, Redroot pigweed (pigweed; [5]): 0
Plant response rating, Redroot pigweed (pigweed; [6]): 0
Redroot pigweed plant response rating (pigweed; [8]): 0
Redroot pigweed plant response rating (pigweed; [7]): 0
Barnyardgrass plant response rating (bamyardgrass; [1]): 0
Barnyardgrass plant response rating (bamyardgrass; [9]): 0
Barnyardgrass plant response rating (bamyardgrass; [11]): 9
Barnyardgrass plant response rating (bamyardgrass; [10]): 8
Cocklebur plant response rating (cocklebur; [1]): 0
Cocklebur plant response rating (cocklebur; [2]): 0
Cocklebur plant response rating (cocklebur; [3]): 0
Plant response rating, Cocklebur (cocklebur; [4]): 0
Plant response rating, Cocklebur (cocklebur; [5]): 0
Plant response rating, Cocklebur (cocklebur; [6]): 0
Cocklebur plant response rating (cocklebur; [8]): 0
Cocklebur plant response rating (cocklebur; [7]): 0
Nutsedge plant response rating (purple nutsedge; [1]): 0
Nutsedge plant response rating (purple nutsedge; [2]): 0
Nutsedge plant response rating (purple nutsedge; [3]): 0
Plant response rating, Nutsedge (purple nutsedge; [4]): 0
Plant response rating, Nutsedge (purple nutsedge; [5]): 0
Plant response rating, Nutsedge (purple nutsedge; [6]): 0
Nutsedge plant response rating (purple nutsedge; [8]): 0
Nutsedge plant response rating (purple nutsedge; [7]): 0
Ducksalad plant response rating (duck salad; [1]): 0
Ducksalad plant response rating (duck salad; [9]): 0
Ducksalad plant response rating (duck salad; [11]): 2
Ducksalad plant response rating (duck salad; [10]): 0
Morningglory plant response rating (morningglory; [1]): 6
Morningglory plant response rating (morningglory; [2]): 8
Morningglory plant response rating (morningglory; [3]): 0
Plant response rating, Morningglory (morningglory; [4]): 0
Plant response rating, Morningglory (morningglory; [5]): 0
Plant response rating, Morningglory (morningglory; [6]): 2
Morningglory plant response rating (morningglory; [8]): 6
Morningglory plant response rating (morningglory; [7]): 7
Giant foxtail plant response rating (giant foxtail; [1]): 0
Giant foxtail plant response rating (giant foxtail; [2]): 0
Giant foxtail plant response rating (giant foxtail; [3]): 1
Plant response rating, Giant foxtail (giant foxtail; [4]): 4
Plant response rating, Giant foxtail (giant foxtail; [5]): 8
Plant response rating, Giant foxtail (giant foxtail; [6]): 9
Giant foxtail plant response rating (giant foxtail; [8]): 0
Giant foxtail plant response rating (giant foxtail; [7]): 0
Rice plant response rating (rice; [1]): 0
Rice plant response rating (rice; [9]): 0
Rice plant response rating (rice; [11]): 0
Rice plant response rating (rice; [10]): 0
Wild oats plant response rating (wild oat; [1]): 0
Wild oats plant response rating (wild oat; [2]): 0
Wild oats plant response rating (wild oat; [3]): 0
Plant response rating, Wild oats (wild oat; [5]): 0
Plant response rating, Wild oats (wild oat; [6]): 2
Wild oats plant response rating (wild oat; [7]): 0
